Measured values published in patent US4992420A, “Dental anti-plaque and anti-caries agent” (priority 1987, dated 1991).

What was measured:
A. viscosus OMZ 105 [1] = conditions: for Inhibitory effect on adhesion to plastic tubes (in words), A. viscosus OMZ 105: preliminary tests; for Inhibition (%) of adhesion to plastic tubes, A. viscosus OMZ 105: 1 mg/ml, 4 h
S. sanguis OMZ 9 [2] = conditions: for Inhibitory effect on adhesion to plastic tubes (in words), S. sanguis OMZ 9: preliminary tests; for Inhibition (%) of adhesion to plastic tubes, S. sanguis OMZ 9: 1 mg/ml, 4 h
S. mutans OMZ 176 = assay: Inhibition of bacterial adhesion to plastic (polypropylene) tubes, S. mutans; conditions: for Inhibition (%) of adhesion to plastic tubes, S. mutans OMZ 176: 1 mg/ml, 4 h; for inhibition at 1000 µg/mL: Streptococcus mutans, OMZ176, 4 h, read-out: Inhibition (%) of adhesion to plastic tubes, S. mutans OMZ 176
A. viscosus OMZ 206 = assay: Inhibition of bacterial adhesion to plastic (polypropylene) tubes, A. viscosus OMZ 206; conditions: Actinomyces viscosus, OMZ206, 4 h, read-out: Inhibition (%) of adhesion to plastic tubes, A. viscosus OMZ 206
A. naeslundii ATCC 12104 = conditions: desialylated human erythrocytes (A+); no control of bacterial growth phase; none = no inhibition up to 20 mg/ml
A. viscosus OMZ 105 [3] = system: A. viscosus OMZ 105
A. viscosus OMZ 105 [4] = assay: microbe, parasite or virus in culture; conditions: Actinomyces viscosus, OMZ105, 4 h, read-out: Inhibition (%) of adhesion to plastic tubes, A. viscosus OMZ 105
S. sanguis OMZ 9 [5] = assay: microbe, parasite or virus in culture; conditions: Streptococcus, OMZ9, 4 h, read-out: Inhibition (%) of adhesion to plastic tubes, S. sanguis OMZ 9

Compound: O=C[C@H](O)[C@@H](O)[C@H](O)[C@H](O)CO [glucose]
- Inhibitory effect on adhesion to plastic tubes (in words), A. viscosus OMZ 105 (A. viscosus OMZ 105 [1]): nonactivity
- Inhibitory effect on adhesion to plastic tubes (in words), S. sanguis OMZ 9 (S. sanguis OMZ 9 [2]): nonactivity

Compound: Polylysine
- Inhibition (%) of adhesion to plastic tubes, A. viscosus OMZ 105 (A. viscosus OMZ 105 [1]): 46%
- Inhibition (%) of adhesion to plastic tubes, S. mutans OMZ 176 (S. mutans OMZ 176): 30%
- Inhibition (%) of adhesion to plastic tubes, S. sanguis OMZ 9 (S. sanguis OMZ 9 [2]): 12%

Compound: NCC(=O)O [glycine]
- Inhibitory effect on adhesion to plastic tubes (in words), A. viscosus OMZ 105 (A. viscosus OMZ 105 [1]): nonactivity
- Inhibitory effect on adhesion to plastic tubes (in words), S. sanguis OMZ 9 (S. sanguis OMZ 9 [2]): nonactivity

Compound: Polyglutamic acid
- Inhibition (%) of adhesion to plastic tubes, A. viscosus OMZ 105 (A. viscosus OMZ 105 [1]): 22%
- Inhibition (%) of adhesion to plastic tubes, S. mutans OMZ 176 (S. mutans OMZ 176): 20%
- Inhibition (%) of adhesion to plastic tubes, S. sanguis OMZ 9 (S. sanguis OMZ 9 [2]): 6%

Compound: OC[C@H]1O[C@@H](O[C@H]2[C@H](O)[C@@H](O)C(O)O[C@@H]2CO)[C@H](O)[C@@H](O)[C@H]1O (stereo partly shown) [Lactose]
- inhibition at 1000 µg/mL (A. viscosus OMZ 206): 15%
- Minimum concentration resulting in complete inhibition of hemagglutination, A. naeslundii ATCC 12104 (A. naeslundii ATCC 12104): none
- Minimum concentration resulting in complete inhibition of hemagglutination, expressed in galactoside equivalents/ml (A. viscosus OMZ 105 [3]; A. viscosus OMZ harvested in the exponential phase, desialylated human erythrocytes (A+)): > 10 mg/mL
- Minimum concentration resulting in complete inhibition of hemagglutination, expressed in dry weight/ml (A. viscosus OMZ 105 [3]; A. viscosus OMZ harvested in the exponential phase, desialylated human erythrocytes (A+), none = no inhibition up to 20 mg/ml): none
- Minimum concentration resulting in complete inhibition of hemagglutination, A. viscosus OMZ 105 (A. viscosus OMZ 105 [3]; desialylated human erythrocytes (A+), no control of bacterial growth phase, none = no inhibition up to 20 mg/ml): none
- Inhibition of hemagglutinations governed by type 2 pili (in words) (A. viscosus OMZ 105 [3]; summary of Tables I and II): completely ineffective
- inhibition at 1000 µg/mL (A. viscosus OMZ 105 [4]): 14%
- inhibition at 1000 µg/mL (S. sanguis OMZ 9 [5]): 12%
- inhibition at 1000 µg/mL (S. mutans OMZ 176): 4%

Compound: COC1OC(CO)C(O)C(O)C1O (stereo not drawn) [Methyl α mannoside]
- Inhibition (%) of adhesion to plastic tubes, A. viscosus OMZ 105 (A. viscosus OMZ 105 [1]): 10%
- Inhibition (%) of adhesion to plastic tubes, S. mutans OMZ 176 (S. mutans OMZ 176): 3%
- Inhibition (%) of adhesion to plastic tubes, S. sanguis OMZ 9 (S. sanguis OMZ 9 [2]): 11%

Compound: O=C[C@H](O)[C@@H](O)[C@@H](O)[C@H](O)CO [Galactose]
- inhibition at 1000 µg/mL (A. viscosus OMZ 105 [4]): 12%
- inhibition at 1000 µg/mL (S. sanguis OMZ 9 [5]): 12%
- inhibition at 1000 µg/mL (S. mutans OMZ 176): 4%
